Measured values from patent US20210084900A1, “Substituted 5-(haloalkyl)-5-hydroxy-isoxazoles for Combating Phytopathogenic Fungi” (BASF SE, priority 2017, published 2021).

How the values were obtained:
Phakopsora pachyrhizi = assay: Protective control of soy bean rust on soy beans, inoculation 1 day after spraying (glass house trial 2); format: in vivo; details: 600 ppm, protective (1 day), untreated plants 100% diseased leaf area
Description: (§1) Spray solutions were prepared in several steps. A mixture was prepared of acetone and/or dimethylsulfoxide and the wetting agent/emulsifier Wettol, which is based on ethoxylated alkylphenoles, in a relation (volume) solvent-emulsifier of 99 to 1 was added to 25 mg of the compound to give a total of 5 ml. Water was then added to a total volume of 100 ml. This stock solution was diluted with the described solvent-emulsifier-water mixture to the given concentration.
2. Protective Control of Soy Bean Rust on Soy Beans Caused by Phakopsora pachyrhizi
Leaves of pot-grown soy bean seedlings were sprayed to run-off with an aqueous suspension, containing the concentration of active ingredient or their mixture as described below. The plants were allowed to air-dry. The trial plants were cultivated for 1 day in a greenhouse chamber at 23 to 27° C. and a relative humidity between 60 and 80%.Then the plants were inoculated with spores of Phakopsora pachyrhizi. To ensure the success the artificial inoculation, the plants were transferred to a humid chamber with a relative humidity of about 95% and 20 to 24° C. for 24 hours. The trial plants were cultivated for fourteen days in a greenhouse chamber at 23 to 27° C. and a relative humidity between 60 and 80%. The extent of fungal attack on the leaves was visually assessed as % diseased leaf area.

Sclerotinia sclerotiorum = assay: Preventative fungicidal control of rape stem rot on soy beans (glass house trial 5); format: in vivo; details: 300 ppm, soy bean, untreated plants 90% diseased leaf area
Description: as §1
5. Preventative Fungicidal Control of Rape Stem Rot on Soy Beans Caused by (Sclerotinia scierotiorum
Young seedlings of soy beans were grown in pots. These plants were sprayed to run-off with an aqueous suspension, containing the concentration of active ingredient or mixture mentioned in the table below. The next day the treated plants were inoculated: Rye and millet grains were infected with Sclerotinia sclerotiorum. After the infection the grains were air dried for a week. The grains were powdered with a mixer. A small amount of powder was brought onto the soy bean (leaves). Then the trial plants were cultivated for 7 days in a greenhouse chamber at 23° C. and a relative humidity between 80 an 85%. The extent of fungal attack on the leaves was visually assessed with a classification method: 0, 33, 50, 67 and 100% disease of leaf area and stem.

Puccinia recondita = assay: Preventative control of brown rust on wheat (glass house trial 6); format: in vivo; details: 300 ppm, preventative (inoculation 7 days after spraying), untreated plants 100% diseased leaf area
Description: as §1
6. Preventative Control of Brown Rust on Wheat Caused by Puccinia recondita
The first two developed leaves of pot-grown wheat seedling were sprayed to run-off with an aqueous suspension, containing the concentration of active ingredient or their mixture as described below. Seven days later the plants were inoculated with spores of Puccinia recondita. To ensure the success the artificial inoculation, the plants were transferred to a humid chamber without light and a relative humidity of 95 to 99% and 20 to 24° C. for 24 hours. Then the trial plants were cultivated for 6 days in a greenhouse chamber at 20 to 24° C. and a relative humidity between 65 and 70%. The extent of fungal attack on the leaves was visually assessed as % diseased leaf area.

SMILES | diseased leaf area (Phakopsora pachyrhizi) [%] | diseased leaf area (Sclerotinia sclerotiorum) [%] | melting point [°C] | diseased leaf area (Puccinia recondita) [%]
CN(C(=O)c1ccc(C2=NOC(O)(C(F)(F)F)C2)cc1)c1ccccc1 (centres unmarked) [Ex-2] | 0 | 0 | – | –
O=C(NCc1ccc(C2=NOC(O)(C(F)(F)F)C2)cc1)C1CC1 (centres unmarked) [Ex-4, N-[[4-[5-hydroxy-5-(trifluoromethyl)-4H-isoxazol-3-yl]phenyl]methyl]cyclopropanecarboxamide] | – | – | 207 | –
O=C(Nc1ccccc1)c1ccc(C2=NOC(O)(C(F)(F)F)C2)cc1 (centres unmarked) [Ex-7, 4-[5-Hydroxy-5-(trifluoromethyl)-4H-isoxazol-3-yl]-N-phenyl-benzamide] | – | – | 217 | –
COC1(C(F)(F)F)CC(c2ccc(CN(C)C(=O)C3CC3)cc2)=NO1 (centres unmarked) [Ex-13] | 0 | – | – | –
CN(Cc1ccc(C2=NOC(O[Si](C)(C)C)(C(F)(F)F)C2)cc1)C(=O)C1CC1 (centres unmarked) [Ex-14] | 0 | – | – | –
CC(=O)OC1(C(F)(F)F)CC(c2ccc(CN(C)C(=O)C3CC3)cc2)=NO1 (centres unmarked) [Ex-15] | 0 | 0 | – | 12
CC(=O)OC1(C(F)(F)F)CC(c2ccc(CNC(=O)C3CC3)cc2)=NO1 (centres unmarked) [Ex-18] | 0 | 0 | – | –
COC1(C(F)(F)F)CC(c2ccc(CNC(=O)C3CC3)cc2)=NO1 (centres unmarked) [Ex-19] | 0 | – | – | –
O=C(Nc1ccccc1)c1ccc(C2=NOC(OC(=O)N3CCCC3)(C(F)(F)F)C2)cc1 (centres unmarked) [Ex-26] | – | 0 | – | –
O=C(Nc1ccccc1)c1ccc(C2=NOC(OC(=O)N3CCOCC3)(C(F)(F)F)C2)cc1 (centres unmarked) [Ex-27] | – | 0 | – | –
O=C(Nc1ccccc1)c1ccc(C2=NOC(OC(=O)C3CCCO3)(C(F)(F)F)C2)cc1 (centres unmarked) [Ex-28] | 0 | 0 | – | –
CCOCC(=O)OC1(C(F)(F)F)CC(c2ccc(C(=O)Nc3ccccc3)cc2)=NO1 (centres unmarked) [Ex-30] | 0 | 0 | – | –
CC(C)CC(=O)OCOC1(C(F)(F)F)CC(c2ccc(C(=O)Nc3ccccc3)cc2)=NO1 (centres unmarked) [Ex-40] | 0 | – | – | –
CNC(=O)c1ccc(C2=NOC(OC(=O)C3CC3)(C(F)(F)F)C2)cc1 (centres unmarked) [Ex-42] | 0 | – | – | –
